Some test systems named below: A549; COLO 205; DU-145; HOP-62; HOP-92; HT-29; Hs-578T; K562; MCF7; MDA-MB-231; MDA-MB-435; NCI-H226; NCI-H522; OVCAR-5; SK-OV-3; SNB-19; T47D; TK-10; U-251; UACC-62.
Common to all, as to assay: NCI-60 cell line screen, 48 h

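A five-concentration, 48-hour dose response in 96-well plates underlies each endpoint, interpolated linearly between surrounding concentrations. The concentration for 50% growth inhibition is given as GI50.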 The source made the active and inactive calls. Rule as the data show it: active = GI50 up to about 1.1 µM and inactive = higher.

Consider `COC(=O)C12OCC34C(CC5C(C)=C(O)C(=O)CC5(C)C3C(O)C1O)OC(=O)C(OC(=O)C=C(C)C)C24` (configuration not stated), for which the GI50 in the assay on A549 was > 500 µM (inactive); in the assay with COLO 205, > 500 µM (inactive); in the assay with DU-145 it was 0.318 µM (active); in the assay with HOP-62, > 500 µM (inactive); in the assay with HOP-92, 234 µM (inactive); with HT-29, > 500 µM (inactive). The GI50 with Hs-578T was < 0.215 µM (active); in the assay on K562, > 486 µM (inactive); in the assay on MCF7, 256 µM (inactive); in the assay with MDA-MB-231, 0.0234 µM (active); in the assay on MDA-MB-435, < 0.215 µM (active); with NCI-H226 it was 436 µM (inactive). For the same compound, the GI50 in the assay on NCI-H522 was 301 µM (inactive); in the assay with OVCAR-5, > 500 µM (inactive); with SK-OV-3 it was > 500 µM (inactive); in the assay on SNB-19, 368 µM (inactive); in the assay with T47D, 0.0132 µM (active); in the assay on TK-10, < 0.215 µM (active). The GI50 is 316 µM (inactive) with U-251 and > 500 µM (inactive) with UACC-62.
On to `COc1ccccc1C[C@@H]1OC2(C=CC(=O)CC2SC(=O)c2ccccc2)O[C@H]1Cc1ccccc1OC` (some centres not stated), for which the GI50 in the assay on A549 was 2.9 µM (inactive); in the assay on COLO 205 it was 1.69 µM (inactive); with DU-145, 3.78 µM (inactive); in the assay on HOP-62 it was 1.35 µM (inactive); in the assay with HOP-92, 1.64 µM (inactive); with HT-29 it was 1.65 µM (inactive). For the same compound, the GI50 is 1.25 µM (inactive) in the assay with Hs-578T; 2.51 µM (inactive) in the assay with K562; 0.363 µM (active) in the assay on MCF7; 2.64 µM (inactive) in the assay with MDA-MB-231; 1.94 µM (inactive) in the assay on MDA-MB-435; 2.08 µM (inactive) with NCI-H226. Also, the GI50 was 1.19 µM (inactive) in the assay with OVCAR-5; 2.17 µM (inactive) in the assay on SK-OV-3; 1.91 µM (inactive) in the assay on SNB-19; 1.6 µM (inactive) in the assay with T47D; 1.54 µM (inactive) in the assay with TK-10; 1.44 µM (inactive) in the assay on U-251. Further, the GI50 with UACC-62 was 2.71 µM (inactive).
Take `Oc1nc2c(c(-c3ccc(Br)cc3)n1)COC/C2=C\c1ccc(Br)cc1`: the GI50 in the assay on COLO 205, in the assay on DU-145, in the assay with HOP-62, in the assay with HOP-92, in the assay with HT-29 and with Hs-578T was > 50 µM (inactive) throughout. Further, the GI50 in the assay with K562 was > 50 µM (inactive); in the assay on MCF7 it was 47.4 µM (inactive); with MDA-MB-231 it was > 50 µM (inactive); in the assay with MDA-MB-435, 29.4 µM (inactive); in the assay with NCI-H226, > 50 µM (inactive); in the assay on NCI-H522 it was > 50 µM (inactive). Also, the GI50 in the assay with OVCAR-5, in the assay with SK-OV-3, in the assay with SNB-19, with T47D, in the assay with TK-10 and in the assay on U-251 was > 50 µM (inactive) throughout. Besides, in the assay on UACC-62, the GI50 is > 50 µM (inactive).
Consider `COc1cc(-c2oc3ccccc3c(=O)c2O)cc(OC)c1OC`, for which the GI50 in the assay on A549 is 9.02 µM (inactive); in the assay on COLO 205 it was 73.3 µM (inactive); with DU-145, > 31.6 µM (inactive); in the assay with HOP-62, 6.04 µM (inactive); in the assay with HOP-92, 4.06 µM (inactive); in the assay with HT-29, > 74.8 µM (inactive). Moreover, the GI50 is 8.22 µM (inactive) in the assay with Hs-578T; 6.71 µM (inactive) in the assay with K562; > 100 µM (inactive) with MCF7; 42.4 µM (inactive) with MDA-MB-231; > 100 µM (inactive) in the assay with MDA-MB-435; 11.4 µM (inactive) in the assay on NCI-H522. Moreover, the GI50 in the assay on OVCAR-5 was > 100 µM (inactive); with SK-OV-3 it was 43.4 µM (inactive); in the assay with SNB-19, > 58.9 µM (inactive); in the assay with T47D, 6 µM (inactive); with TK-10 it was 29 µM (inactive); with U-251 it was 8.77 µM (inactive). Moreover, the GI50 in the assay on UACC-62 is 6.5 µM (inactive).
In the case of `Cc1n[nH]c(=O)c2cc(-c3ccccc3)[nH]c12`, the GI50 in the assay with A549 is 49 µM (inactive); with COLO 205 it was 27.7 µM (inactive); with DU-145 it was 94.8 µM (inactive); in the assay on HOP-62, > 100 µM (inactive); in the assay on HOP-92, > 100 µM (inactive); in the assay with HT-29 it was 33.2 µM (inactive). For the same compound, the GI50 in the assay on Hs-578T was 26.4 µM (inactive); in the assay on K562, 38.6 µM (inactive); in the assay with MCF7, 30.8 µM (inactive); in the assay with MDA-MB-231 it was 40.8 µM (inactive); in the assay on MDA-MB-435, 51.9 µM (inactive); in the assay with NCI-H226, 72.9 µM (inactive). Besides, the GI50 in the assay on OVCAR-5 was 50.7 µM (inactive); with SK-OV-3 it was > 100 µM (inactive); in the assay with SNB-19, > 100 µM (inactive); in the assay with T47D, 27.5 µM (inactive); in the assay with TK-10, 59.3 µM (inactive); in the assay with U-251, 51.2 µM (inactive). Also, the GI50 in the assay on UACC-62 was 33.8 µM (inactive).
Turning to `CCOC(=O)Nn1c(C)nnc1-c1ccccc1`, the GI50 in the assay on A549, with COLO 205, in the assay with DU-145, in the assay on HOP-92, in the assay on HT-29 and in the assay on Hs-578T was > 100 µM (inactive) throughout. Further, the GI50 in the assay on K562, in the assay with MCF7, in the assay with MDA-MB-231, with MDA-MB-435, in the assay with NCI-H226 and in the assay with NCI-H522 was > 100 µM (inactive) throughout. The GI50 in the assay with OVCAR-5 was > 100 µM (inactive); with SK-OV-3, 61.7 µM (inactive); with SNB-19, > 100 µM (inactive); in the assay on T47D, > 100 µM (inactive); with TK-10 it was > 100 µM (inactive); in the assay on U-251 it was > 100 µM (inactive). Besides, the GI50 in the assay with UACC-62 was > 100 µM (inactive).
As to `CC(C)(C)OC(=O)C1C(=O)NC(=O)CC1C(COCc1ccccc1)OCc1ccccc1` (configuration not stated), the GI50 with A549 was 30.4 µM (inactive); in the assay on DU-145, 39.7 µM (inactive); in the assay on HOP-62, 12.1 µM (inactive); with HOP-92, 15.5 µM (inactive); in the assay with HT-29, 18.7 µM (inactive); in the assay with Hs-578T, 23.1 µM (inactive). Also, the GI50 in the assay on K562 is 30.1 µM (inactive); in the assay on MCF7, 19.9 µM (inactive); in the assay on MDA-MB-231, 17.2 µM (inactive); in the assay on MDA-MB-435 it was 19.1 µM (inactive); with NCI-H226, 17.6 µM (inactive); in the assay with NCI-H522 it was 15.8 µM (inactive). For the same compound, the GI50 was 12.2 µM (inactive) in the assay on OVCAR-5; 40.6 µM (inactive) with SNB-19; 14.3 µM (inactive) with T47D; 35 µM (inactive) in the assay with TK-10; 20.5 µM (inactive) in the assay with U-251.
Take `COC(=O)[C@@H]1Cc2cc(O)c(O)cc2C2(CCN(C)CC2)O1`: the GI50 in the assay with A549, with COLO 205, with DU-145, with HOP-62, in the assay with HOP-92 and in the assay with HT-29 was > 10 µM (inactive) in each case. Further, the GI50 in the assay on Hs-578T, in the assay on MCF7, in the assay with MDA-MB-231, in the assay on MDA-MB-435, in the assay with NCI-H226 and with NCI-H522 was > 10 µM (inactive) each time. Besides, the GI50 in the assay on OVCAR-5, in the assay with SK-OV-3, in the assay on SNB-19, in the assay on T47D, in the assay with TK-10 and in the assay on U-251 was > 10 µM (inactive) throughout. Besides, the GI50 in the assay on UACC-62 was > 10 µM (inactive).
With `Cc1c(C)c2c(c(N)c1C#N)C(=O)N(CCc1ccccc1)C2=O`, the GI50 is 94.8 µM (inactive) in the assay with A549; > 100 µM (inactive) with COLO 205; > 100 µM (inactive) with DU-145; > 100 µM (inactive) in the assay on HOP-92; > 100 µM (inactive) in the assay with Hs-578T; > 100 µM (inactive) with K562. In addition, the GI50 in the assay with MCF7, with MDA-MB-231, in the assay on MDA-MB-435, in the assay with NCI-H226, with NCI-H522 and with OVCAR-5 was > 100 µM (inactive) each time. Moreover, the GI50 in the assay on SNB-19, with T47D, in the assay with TK-10, in the assay with U-251 and in the assay with UACC-62 was > 100 µM (inactive) throughout.
Take `CC(=O)OC[C@H]1On2nnnc2[C@H](OC(C)=O)[C@@H](OC(C)=O)[C@@H]1OC(C)=O`: the GI50 in the assay on A549, in the assay with COLO 205, in the assay on DU-145, with HOP-62, in the assay with HOP-92 and in the assay on HT-29 was > 100 µM (inactive) throughout. Also, the GI50 in the assay with Hs-578T, with K562, in the assay on MCF7, in the assay with MDA-MB-231, with MDA-MB-435 and in the assay on NCI-H226 was > 100 µM (inactive) in each case. The GI50 was > 100 µM (inactive) with NCI-H522; > 100 µM (inactive) in the assay with OVCAR-5; > 100 µM (inactive) with SK-OV-3; > 100 µM (inactive) with T47D; 31 µM (inactive) in the assay with TK-10; > 100 µM (inactive) in the assay on U-251. Moreover, the GI50 in the assay on UACC-62 was > 100 µM (inactive).

For the origin of these results see ChEMBL document CHEMBL1201862, “PubChem BioAssay data set” (2004).
